{"source": "patent US20080206311A1", "about": "“Sucrase Activity Inhibitor, Glucoamylase Activity Inhibitor and Food and Feed Containing the Same” (MITSUI SUGAR CO., LTD., priority 2005, published 2008)", "key": {"lactase": {"target": "T1, lactase (Rattus norvegicus, UniProt Q02401)", "T1 construct": "tissue Sigma Corporation; host or cells: rat small intestine (acetone powder), buffer extract, unpurified", "T1 sequence (Q02401 868-1928)": "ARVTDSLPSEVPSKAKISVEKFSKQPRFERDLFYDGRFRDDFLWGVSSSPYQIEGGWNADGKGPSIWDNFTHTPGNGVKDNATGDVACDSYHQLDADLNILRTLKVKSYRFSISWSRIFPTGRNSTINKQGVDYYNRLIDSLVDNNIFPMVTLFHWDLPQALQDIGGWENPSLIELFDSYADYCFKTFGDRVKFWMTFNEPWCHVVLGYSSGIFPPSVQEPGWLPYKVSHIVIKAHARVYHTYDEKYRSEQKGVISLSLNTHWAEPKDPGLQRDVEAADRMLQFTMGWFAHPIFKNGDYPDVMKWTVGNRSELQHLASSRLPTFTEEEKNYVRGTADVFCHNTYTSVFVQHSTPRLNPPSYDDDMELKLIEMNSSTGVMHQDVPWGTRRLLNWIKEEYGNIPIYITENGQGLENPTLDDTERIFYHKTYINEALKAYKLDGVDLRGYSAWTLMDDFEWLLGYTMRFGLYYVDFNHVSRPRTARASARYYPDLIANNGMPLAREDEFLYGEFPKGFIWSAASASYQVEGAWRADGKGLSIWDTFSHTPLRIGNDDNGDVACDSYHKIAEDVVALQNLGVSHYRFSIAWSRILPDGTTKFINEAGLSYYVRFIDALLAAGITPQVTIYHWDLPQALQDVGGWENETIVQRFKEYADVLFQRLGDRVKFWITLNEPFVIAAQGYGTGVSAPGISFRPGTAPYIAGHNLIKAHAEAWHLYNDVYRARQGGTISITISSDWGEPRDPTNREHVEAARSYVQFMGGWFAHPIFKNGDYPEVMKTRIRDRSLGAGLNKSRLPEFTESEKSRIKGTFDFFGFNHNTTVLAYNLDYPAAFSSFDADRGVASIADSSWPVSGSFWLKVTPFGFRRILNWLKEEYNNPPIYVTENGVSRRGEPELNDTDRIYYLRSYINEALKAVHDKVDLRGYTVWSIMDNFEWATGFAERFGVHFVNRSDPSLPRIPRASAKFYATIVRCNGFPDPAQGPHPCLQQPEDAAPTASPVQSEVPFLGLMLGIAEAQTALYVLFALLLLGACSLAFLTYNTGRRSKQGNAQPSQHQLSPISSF", "assay": "Lactase activity inhibition with rat small-intestinal enzyme liquid, substrate lactose", "type": "biochemical", "details": "5% lactose + 5% test sample", "experimental": "(§1) Two grams of rat small-intestinal acetone powder (ex Sigma Corporation) were dissolved in 20 ml of 0.1 M phosphate buffer (pH 6.8), left standing one day at 5° C., and subsequently subjected to centrifugal separation (8000 rpm×15 min.). The supernatant was filtered through a 0.8 μm membrane filter to obtain a small-intestinal enzyme liquid. This liquid contained a mixture of enzymes present in small intestine, such as sucrose, glucoamylase, maltase, and isomaltase.\n(§2) Each 0.25 ml of the small-intestinal enzyme liquid was added to each 5 ml of Solutions 1 through 5 and placed in a water bath at 37° C. to allow them to react for 60 min. while shaken at 60 strokes/min. After the reaction, they were heated in a boiling water bath for 3 min. for inactivation of the enzymes.\n(§3) The glucose concentration in each solution after the reaction was measured using the F-kit Glucose (ex Roche). A liberated glucose concentration (g/l) was calculated by subtracting the blank value (0.1 M phosphate buffer alone) and the concentration of glucose originally contained in the test sample from each glucose concentration measured.\n(§4) Next, each of the liberated glucose concentration was input in the following equation to obtain decomposition inhibition ratio for maltase and sucrose. In the present tests, the substrates and the inhibitors were decomposed by enzymes present in the small-intestinal enzyme liquid. However, the enzymes decomposing the substrates are different from the enzymes decomposing the inhibitors. The decomposition inhibition ratio was determined as a measure for the inhibitory effect. When the inhibitor was added, the glucose concentration was lower than that seen when the substrate alone was reacted. A higher decomposition inhibition ratio means a stronger inhibitory effect.\n(§5) Decomposition inhibition ratio,%={(A+B)−(AB)}+(A+B)×100 [Equation 1]\n(§6) wherein (A+B) indicates a sum of a liberated glucose concentration in the control solution containing the test sample alone after the reaction (A) and a liberated glucose concentration in the control solution containing the substrate alone after the reaction (B); and (AB) indicates a liberated glucose concentration in the test solution containing the test sample (A) and the substrate (B), after the reaction.\n(§7) The procedures in Example 1 were repeated with the exception that palatinit, palatinose or isomaltose was used as a test sample and lactose was used as a substrate. The test samples and the substrate were dissolved in 0.1 M phosphate buffer (pH 6.8) to attain the concentration shown in Table 5 to thereby prepare three test solutions. Besides, each of the test samples or the substrate was dissolved in 0.1 M phosphate buffer (pH 6.8) to attain the concentration shown in Table 5 to thereby prepare control solutions. Each 5 ml of the aforementioned test solutions and the control solutions was subjected to the enzymatic reaction according to the same procedures as in Example 1. The glucose concentration, the fructose concentration and the galactose concentration were measured. The galactose concentration was measured using F-kit Galactose (ex Roche). The liberated galactose concentration, g/l, was calculated by subtracting the blank value (0.1 M phosphate buffer alone) from the measured galactose concentration."}, "sucrase": {"target": "T2, sucrase (Rattus norvegicus, UniProt P23739)", "T2 construct": "This liquid contained a mixture of enzymes present in small intestine, such as sucrose, glucoamylase, maltase, and isomaltase; tissue Sigma Corporation; host or cells: rat small intestine (acetone powder), buffer extract, unpurified", "T2 sequence (P23739 whole entry)": "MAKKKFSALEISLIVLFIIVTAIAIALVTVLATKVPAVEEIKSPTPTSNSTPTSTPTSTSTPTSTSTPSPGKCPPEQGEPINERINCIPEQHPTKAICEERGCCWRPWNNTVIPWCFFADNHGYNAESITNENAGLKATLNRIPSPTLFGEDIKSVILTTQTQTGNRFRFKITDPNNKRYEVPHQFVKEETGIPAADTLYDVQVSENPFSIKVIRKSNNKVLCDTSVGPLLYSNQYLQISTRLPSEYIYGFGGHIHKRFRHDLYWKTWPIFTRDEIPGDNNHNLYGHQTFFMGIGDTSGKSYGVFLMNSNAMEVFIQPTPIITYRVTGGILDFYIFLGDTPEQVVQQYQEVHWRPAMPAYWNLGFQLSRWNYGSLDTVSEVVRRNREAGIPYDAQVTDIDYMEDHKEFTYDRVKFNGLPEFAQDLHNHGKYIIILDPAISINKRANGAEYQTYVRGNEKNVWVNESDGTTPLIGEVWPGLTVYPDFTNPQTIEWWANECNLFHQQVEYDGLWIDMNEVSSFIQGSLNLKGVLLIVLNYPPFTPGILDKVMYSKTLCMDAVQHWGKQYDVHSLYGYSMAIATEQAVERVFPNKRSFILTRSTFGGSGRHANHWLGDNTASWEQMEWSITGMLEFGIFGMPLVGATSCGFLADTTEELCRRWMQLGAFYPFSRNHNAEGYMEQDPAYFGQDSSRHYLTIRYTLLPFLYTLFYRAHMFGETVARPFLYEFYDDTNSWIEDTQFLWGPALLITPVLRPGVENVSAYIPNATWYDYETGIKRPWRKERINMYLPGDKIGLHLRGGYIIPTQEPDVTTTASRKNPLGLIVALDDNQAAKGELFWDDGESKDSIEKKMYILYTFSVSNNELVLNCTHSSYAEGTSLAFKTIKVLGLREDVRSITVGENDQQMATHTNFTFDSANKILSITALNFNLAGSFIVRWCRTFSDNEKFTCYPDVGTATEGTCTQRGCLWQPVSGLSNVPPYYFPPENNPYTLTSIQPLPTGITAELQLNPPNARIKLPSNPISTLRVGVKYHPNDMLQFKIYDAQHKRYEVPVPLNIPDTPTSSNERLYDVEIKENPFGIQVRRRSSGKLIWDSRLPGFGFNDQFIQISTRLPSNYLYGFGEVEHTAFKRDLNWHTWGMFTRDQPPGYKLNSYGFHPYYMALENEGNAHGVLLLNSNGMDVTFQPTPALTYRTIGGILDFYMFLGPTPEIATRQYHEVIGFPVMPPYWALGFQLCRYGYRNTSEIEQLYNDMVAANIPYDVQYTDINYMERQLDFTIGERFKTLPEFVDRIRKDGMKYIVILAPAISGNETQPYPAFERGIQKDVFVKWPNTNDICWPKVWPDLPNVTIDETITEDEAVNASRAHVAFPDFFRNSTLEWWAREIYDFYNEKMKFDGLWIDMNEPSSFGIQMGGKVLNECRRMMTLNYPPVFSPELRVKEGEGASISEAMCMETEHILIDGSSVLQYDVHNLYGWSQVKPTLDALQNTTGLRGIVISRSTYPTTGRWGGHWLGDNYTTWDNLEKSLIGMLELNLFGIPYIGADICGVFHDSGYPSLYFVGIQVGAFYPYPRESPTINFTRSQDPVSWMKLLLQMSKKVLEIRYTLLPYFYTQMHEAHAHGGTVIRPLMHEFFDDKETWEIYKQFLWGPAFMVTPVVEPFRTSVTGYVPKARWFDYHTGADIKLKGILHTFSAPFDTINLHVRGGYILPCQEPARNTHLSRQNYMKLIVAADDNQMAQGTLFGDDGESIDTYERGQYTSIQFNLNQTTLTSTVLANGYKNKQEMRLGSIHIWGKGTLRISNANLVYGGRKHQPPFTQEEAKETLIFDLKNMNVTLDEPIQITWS", "assay": "Sucrase activity inhibition with rat small-intestinal enzyme liquid, substrate sucrose", "type": "biochemical", "experimental": "(§8) Palatinose (trade name: Palatinose IC, ex Shin Mitsui Sugar Co., Ltd.) (test sample) was used as a sample for investigating each enzyme activity inhibitory effect. Maltose and sucrose were used as substrates for maltase and sucrose, respectively. The test sample and the substrates were dissolved in 0.1 M phosphate buffer (pH 6.8) at the concentration shown in Table 1 below to prepare test solutions (Solutions 4 and 5). Also, the test sample or the substrates were dissolved in 0.1 M phosphate buffer (pH 6.8), respectively to at the concentration shown in Table 1 below to prepare control solutions (Solution 1 for the test sample and Solutions 2 and 3 for the substrates).\nas §1, §2, §3, §4, §5, §6\nThe procedures in Example 1 were repeated with the exception that the test solutions contained 5% of sucrose and 0.5%, 1.0%, 3.0% or 5.0% of palatinose to examine intensity of the sucrose activity inhibition. A control solution contained 5% of sucrose in 0.1 M phosphate buffer (pH 6.8).\nThe procedures in Example 1 were repeated with the exception that palatinit and palatinose were used as test samples and sucrose was used as a substrate. The test samples and the substrate were dissolved in 0.1 M phosphate buffer (pH 6.8) to attain the concentration shown in Table 3 to thereby prepare two test solutions. Besides, each one of the test samples or the substrate was dissolved in 0.1 M phosphate buffer (pH 6.8) to attain the concentration shown in Table 3 to thereby prepare control solutions. Each 5 ml of the aforementioned test solutions or the control solutions was subjected to the enzymatic reaction according to the same procedures as in Example 1. The glucose concentration and the fructose concentration were measured. […]"}, "[1]": {"tested_on": "small-intestinal enzyme liquid", "assay": "Decomposition of a saccharide alone (control solution) by small-intestinal enzyme liquid", "type": "biochemical, rat", "details": "5% saccharide alone", "experimental": "as §8, §1, §2, §3\nThe fructose concentration was measured using the F-kit Fructose (ex Roche). The liberated fructose concentration, g/l, was obtained by subtracting the blank value (0.1 M phosphate buffer alone) from the resultant fructose concentration.\nas §7"}, "glucoamylase": {"tested_on": "glucoamylase", "assay": "Glucoamylase activity inhibition with rat small-intestinal enzyme liquid, substrate soluble starch", "type": "biochemical", "details": "5% soluble starch + 5% test sample", "experimental": "as §1, §2, §3, §4, §5, §6\nThe procedures in Example 1 were repeated with the exception that palatinose and palatinit were used as a test sample and soluble starch was used as a substrate. The test samples and the substrate were dissolved in 0.1 M phosphate buffer (pH 6.8) to attain the concentration shown in Table 6 to thereby prepare two test solutions. Besides, each of the test samples or the substrate was dissolved in 0.1 M phosphate buffer (pH 6.8) to attain the concentration shown in Table 6 to thereby prepare control solutions. Each 5 ml of the aforementioned test solutions and the control solutions was subjected to the enzymatic reaction according to the same procedures as in Example 1 and the liberated glucose concentration and the decomposition inhibition ratio were measured.\nThe procedures in Example 1 were repeated with the exception that trehalulose was used as a test sample and soluble starch was used as a substrate. The test sample and the substrate were dissolved in 0.1 M phosphate buffer (pH 6.8) to attain the concentration shown in Table 9 to thereby prepare a test solution. Besides, the test sample or the substrate was dissolved in 0.1 M phosphate buffer (pH 6.8) to attain the concentration shown in Table 9 to thereby prepare control solutions. Each 5 ml of the aforementioned test solution and the control solutions was subjected to the enzymatic reaction according to the same procedures as in Example 1 and the liberated glucose concentration and the decomposition inhibition ratio were measured.\nThe procedures in Example 1 were repeated with the exception that trehalose was used as a test sample and soluble starch was used as a substrate. […]"}, "[2]": {"details": "5% sucrose + 5% test sample, Example 3 / Test Example 2"}, "[3]": {"details": "5% sucrose + 5% test sample, Example 5 / Test Example 4"}}}
{"smiles": "OC[C@H]1O[C@H](OC[C@H]2OC(O)[C@H](O)[C@@H](O)[C@@H]2O)[C@H](O)[C@@H](O)[C@@H]1O", "note": "(stereo partly drawn) [isomaltose, reference compound]", "values": [{"measurement": "Decomposition inhibition ratio, %, against lactase", "setting": "lactase", "value": "−1", "unit": "%"}, {"measurement": "Lactase activity inhibitory effect (in words)", "setting": "lactase", "value": "no lactose inhibitory effect was appreciable"}, {"measurement": "Liberated fructose concentration", "setting": "lactase", "value": 0.00, "unit": "g/L"}, {"measurement": "Liberated galactose concentration", "setting": "lactase", "value": 0.06, "unit": "g/L"}, {"measurement": "Liberated glucose concentration", "setting": "lactase", "value": 2.41, "unit": "g/L"}, {"measurement": "Total concentration of liberated monosaccharides (glucose + fructose)", "setting": "sucrase; 5% sucrose + 5% isomaltose", "value": 2.88, "unit": "g/L"}, {"measurement": "Sucrase activity inhibitory effect (in words)", "setting": "sucrase; 5% sucrose + 5% test sample", "value": "has a sucrose activity inhibitory effect"}, {"measurement": "Decomposition inhibition ratio, %, against sucrase", "setting": "sucrase; [2]", "value": 31, "unit": "%"}, {"measurement": "Liberated fructose concentration", "setting": "sucrase; [2]", "value": 0.70, "unit": "g/L"}, {"measurement": "Liberated glucose concentration", "setting": "sucrase; [2]", "value": 2.18, "unit": "g/L"}, {"measurement": "Liberated fructose concentration", "setting": "[1]; Example 3 / Test Examples 2, 3", "value": 0.02, "unit": "g/L"}, {"measurement": "Liberated glucose concentration", "setting": "[1]; Example 3 / Test Examples 2, 3", "value": 2.14, "unit": "g/L"}, {"measurement": "Liberated galactose concentration", "setting": "[1]; Test Example 3", "value": 0.00, "unit": "g/L"}]}
{"smiles": "OC[C@H]1O[C@H](O[C@H]2O[C@H](CO)[C@@H](O)[C@H](O)[C@H]2O)[C@H](O)[C@@H](O)[C@@H]1O", "note": "[trehalose, reference compound]", "values": [{"measurement": "Sucrase activity inhibitory effect (in words)", "setting": "sucrase; 5% sucrose + 5% test sample", "value": "substantially no sucrose activity inhibitory effect"}, {"measurement": "Decomposition inhibition ratio, %, against sucrase", "setting": "sucrase; [3]", "value": 49, "unit": "%"}, {"measurement": "Liberated glucose concentration", "setting": "sucrase; [3]", "value": 1.683, "unit": "g/L"}, {"measurement": "Glucoamylase activity inhibitory effect (in words)", "setting": "glucoamylase", "value": "has a glucoamylase activity inhibitory effect, but the effect is very weak"}, {"measurement": "Decomposition inhibition ratio, %, against glucoamylase", "setting": "glucoamylase; Example 6 / Test Example 5", "value": 14, "unit": "%"}, {"measurement": "Liberated glucose concentration", "setting": "glucoamylase; Example 6 / Test Example 5", "value": 2.349, "unit": "g/L"}, {"measurement": "Liberated glucose concentration", "setting": "[1]; Example 5 / Test Example 4, sucrase activity inhibition test", "value": 1.656, "unit": "g/L"}, {"measurement": "Liberated glucose concentration", "setting": "[1]; Example 6 / Test Example 5, glucoamylase activity inhibition test", "value": 0.333, "unit": "g/L"}]}
